Test results reported in patent US11236102B2, “Oxabicycloheptane prodrugs” (Lixte Biotechnology, Inc., priority 2015, dated 2022).
“Also recorded” adds a separate entry of the source.

Columns and labels:
[1] = Oral absorption / oral bioavailability of 151 and 100; conditions: rat, in vivo
[2] = Pharmacokinetic study of 100 (iv 0.5, 1.0, 1.5 mg/kg) in SD rats: 100 and endothal in plasma, liver, brain; type: in vivo; conditions: for Endothal brain concentration / Endothal plasma concentration: SD rats
Description: 100 was administrated via iv route at 0.5, 1.0 and 1.5 mg/kg into SD rats. The blood, liver and brain tissue samples were collected at predetermined times from rats.
Twelve (12) female SD rats per group were dosed by iv with 100. The rats were fasted overnight prior to dosing, with free access to water. Foods were withheld for 2 hours post-dose. Blood, liver and brain tissue samples in two animals each group were collected at each time point, within 10% of the scheduled time for each time point. Two extra animals were used for analytic method development. Blood (>0.3 mL) were collected via aorta abdominalis in anaesthetic animals into tubes containing heparin at 15 min, 1, 2, 6, 10 and 24 hours after iv administration. Liver and brain tissues were collected immediately after animal death. The liver and brain tissues were excised and rinsed with cold saline to avoid blood residual. Upon collection, each sample was placed on ice and the blood samples were subsequently centrifuged (4° C., 11000 rpm, 5 min) to separate plasma. The obtained plasma, liver and brain tissue samples were stored at −70° C. until LC-MS/MS analysis.
AUC0-∞ (AUCINF) is the area under the plasma concentration-time curve with last concentration extrapolated based on the elimination rate constant.

[3] = Pharmacokinetic study of 157 (iv, po) in SD rats: 157 and endothal in plasma, liver, brain; type: in vivo; parameters: Tmax: dose or concentration left out as unconfirmed; conditions: for Endothal plasma concentration: individual rats
Description: The blood, liver and brain tissue samples were collected at predetermined times from rats. […] Compound were diluted shortly before use in 4% sodium bicarbonate for sterile injection (this is the standard pediatric solution of NaHCO3 with a pH of about 8.5).
Compound 153 was freshly prepared by diluting the drugs shortly before use in 4% sodium bicarbonate for sterile injection (this is the standard pediatric solution of NaHCO3 with a pH of about 8.5). The final concentrations of 153 solutions were 0.25 mg/mL. The 153 solutions were administered via iv or po route at dose volume of 5 ml/kg according to the latest body weight. Compound 157 was freshly prepared by diluting the drugs shortly before use in 4% sodium bicarbonate for sterile injection (this is the standard pediatric solution of NaHCO3 with a pH of about 8.5). […] The 157 solutions were administered via iv or po route at dose volume of 5 ml/kg according to the latest body weight.
Twelve (12) female SD rats per group were dosed by iv with 153 or 157. The rats were fasted overnight prior to dosing, with free access to water. Foods were withheld for 2 hours post-dose. Blood, liver and brain tissue samples in two animals each group were collected at each time point, within 10% of the scheduled time for each time point. Two extra animals were used for analytic method development.
Blood (>0.3 mL) were collected via aorta abdominalis in anaesthetic animals into tubes containing heparin at 15 min, 1, 2, 6, 10 and 24 hours after iv administration. Liver and brain tissues were collected immediately after animal death. The liver and brain tissues were excised and rinsed with cold saline to avoid blood residual. Upon collection, each sample was placed on ice and the blood samples were subsequently centrifuged (4° C., 11000 rpm, 5 min) to separate plasma.
The obtained plasma, liver and brain tissue samples were stored at −70° C. until LC-MS/MS analysis.
Two (2) female SD rats per group were dosed by po with 153 or 157. The rats were fasted overnight prior to dosing, with free access to water. Foods were withheld for 2 hours post-dose. Blood samples (>0.3 mL) were collected via aorta abdominalis in anaesthetic animals into tubes containing heparin at 30 min, 1, 2, 6, 10 and 24 hours after po administration.
To each sample, 30 μL IS-D (for blank samples, 20 μL acetonitrile:water (1:1) was added) and 300 ul acetonitrile was added. The sample mixture was vortexed for approximately 3 min. After centrifugation at 10000 rpm for 5 min at 4° C., 100 μL of the upper layer was transferred to a new tube and added 200 μL 0.4% formic acid in water (pH6.0). The mixture was vortexed for approximately 3 min before injected onto the LC/MS/MS system for analysis.
On the day of the assay, the frozen liver and brain samples were thawed unassisted at room temperature. An about 200 mg weighed sample of each thawed tissue was placed into a plastic tube with water (0.6 mL) to facilitate homogenization. Tissue processing was conducted using a homogenizer for approximately 1 min, […] homogenate was transferred into a fresh Eppendorf tube. To each tube, 50 μL IS-D was added and mixed. Then 500 ul acetonitrile was added and the sample mixture was vortexed for approximately 3 min. After centrifugation at 10000 rpm for 5 min at 4° C., 100 μL of the upper layer was transferred to a new tube and evaporate the supernatant to dryness at 35° C. Reconstitute the residue with 200 μL of 0.4% formic acid in water (pH 6.0), and vortex for 3 min, submit for LC-MS/MS analysis.
Frozen unknown plasma samples were completely thawed at room temperature and vortexed thoroughly. With a pipette, 50 μL of plasma was transferred into a 2.0 mL Eppendorf tube. 50 μL of 0.1N HCl and 800 μL ethyl acetate were added into each sample. The sample mixture was vortexed for approximately 3 min.

[4] = 100 iv 0.5 mg/kg, 24 hr, individual rats
[5] = female, Sprague-Dawley, rat, in vivo, iv, 1.5 mg/kg

## COC(=O)C1C2CCC(O2)C1C(=O)N1CCN(C)CC1 (centres unmarked) [Compound 151]
[1]
  bioavailability: ~60%

## O=C(O)C1C2CCC(O2)C1C(=O)O (centres unmarked) [Endothal, 7-oxabicyclo[2.2.1]heptane-2,3-dicarboxylic acid]
[2]; 100 iv 0.5 mg/kg, 0.25 hr, individual rats
  Endothal brain concentration: BLQ
[2]; 100 iv 0.5 mg/kg, 0.25 hr, mean
  Endothal brain concentration: BLQ
[2]; 100 iv 0.5 mg/kg, 1 hr, individual rats
  Endothal brain concentration: BLQ
[2]; 100 iv 0.5 mg/kg, 1 hr, mean
  Endothal brain concentration: BLQ
[2]; 100 iv 0.5 mg/kg, 2 hr, individual rats
  Endothal brain concentration: BLQ
[2]; 100 iv 0.5 mg/kg, 2 hr, mean
  Endothal brain concentration: BLQ
[2]; 100 iv 0.5 mg/kg, 6 hr, individual rats
  Endothal brain concentration: BLQ
[2]; 100 iv 0.5 mg/kg, 6 hr, individual rats, 0.5 mg/kg
  Endothal plasma concentration: BLQ
[2]; 100 iv 0.5 mg/kg, 6 hr, mean
  Endothal brain concentration: BLQ
[2]; 100 iv 0.5 mg/kg, 10 hr, individual rats
  Endothal brain concentration: BLQ
[2]; 100 iv 0.5 mg/kg, 10 hr, mean
  Endothal brain concentration: BLQ
[2]; [4]
  Endothal brain concentration: BLQ
  Endothal plasma concentration: BLQ
[2]; 100 iv 0.5 mg/kg, 24 hr, mean
  Endothal brain concentration: BLQ
  Endothal plasma concentration: BLQ
[2]; 100 iv 1.0 mg/kg, 0.25 hr, individual rats
  Endothal brain concentration: BLQ
[2]; 100 iv 1.0 mg/kg, 0.25 hr, mean
  Endothal brain concentration: BLQ
[2]; 100 iv 1.0 mg/kg, 1 hr, individual rats
  Endothal brain concentration: BLQ
[2]; 100 iv 1.0 mg/kg, 1 hr, mean
  Endothal brain concentration: BLQ
[2]; 100 iv 1.0 mg/kg, 2 hr, individual rats
  Endothal brain concentration: BLQ
[2]; 100 iv 1.0 mg/kg, 2 hr, mean
  Endothal brain concentration: BLQ
[2]; 100 iv 1.0 mg/kg, 6 hr, individual rats
  Endothal brain concentration: BLQ
[2]; 100 iv 1.0 mg/kg, 6 hr, mean
  Endothal brain concentration: BLQ
[2]; 100 iv 1.0 mg/kg, 10 hr, individual rats
  Endothal brain concentration: BLQ
[2]; 100 iv 1.0 mg/kg, 10 hr, mean
  Endothal brain concentration: BLQ
[2]; 100 iv 1.0 mg/kg, 24 hr, individual rats
  Endothal brain concentration: BLQ
[2]; 100 iv 1.0 mg/kg, 24 hr, mean
  Endothal brain concentration: BLO
[2]; 100 iv 1.5 mg/kg, 0.25 hr, individual rats
  Endothal brain concentration: BLQ
[2]; 100 iv 1.5 mg/kg, 0.25 hr, mean
  Endothal brain concentration: BLQ
[2]; 100 iv 1.5 mg/kg, 1 hr, individual rats
  Endothal brain concentration: BLQ
[2]; 100 iv 1.5 mg/kg, 1 hr, mean
  Endothal brain concentration: BLQ
[2]; 100 iv 1.5 mg/kg, 2 hr, individual rats
  Endothal brain concentration: BLQ
[2]; 100 iv 1.5 mg/kg, 2 hr, mean
  Endothal brain concentration: BLQ
[2]; 100 iv 1.5 mg/kg, 6 hr, individual rats
  Endothal brain concentration: BLQ
[2]; 100 iv 1.5 mg/kg, 6 hr, mean
  Endothal brain concentration: BLQ
[2]; 100 iv 1.5 mg/kg, 10 hr, individual rats
  Endothal brain concentration: BLQ
[2]; 100 iv 1.5 mg/kg, 10 hr, mean
  Endothal brain concentration: BLQ
[2]; 100 iv 1.5 mg/kg, 24 hr, individual rats
  Endothal brain concentration: BLQ
[2]; 100 iv 1.5 mg/kg, 24 hr, mean
  Endothal brain concentration: BLQ
[2]; Sprague-Dawley, rat, in vivo
  half-life: ~6 h
[2]; endothal after single iv 100 at 0.5, 1.0 and 1.5 mg/kg
  detectability in brain samples: not detectable; also recorded: undetectable
[2]; [5]
  AUClast in plasma: 546 to 4476 ng·h/mL
  Cmax: 349 to 2960 ng/g
  T1/2 in liver: 4.57 to 10.1 h
  T1/2 in plasma: 6.25 to 7.06 h
  mean Cmax in plasma: 577 to 1230 ng/mL
[2]; rat, in vivo, iv, 1.5 mg/kg
  AUClast in liver: 2598 to 18434 ng·h/g
[3]; endothal after single iv 157 at 1.5 mg/kg, 1.5 mg/kg
  detectability in brain samples: not detectable; also recorded: undetectable
[3]; female, SD, rat, in vivo, po
  Tmax: 2 h
[3]; [5]
  AUC: 374 ng·h/mL
  Cmax: 3720 ng/mL
[3]; iv administration of 157, 10 hr
  Endothal plasma concentration: BLQ
[3]; iv administration of 157, 24 hr
  Endothal plasma concentration: BLQ
[3]; po administration of 157, 10 hr
  Endothal plasma concentration: BLQ
[3]; rat, in vivo, iv, 1.5 mg/kg
  AUClast in liver: 15025 ng·h/g
